Experimental data: PMC5342526, “Identification of Bisindolylmaleimide IX as a potential agent to treat drug-resistant BCR-ABL positive leukemia” (Oncotarget, 2016)
Read-outs that look alike come from different tables or passages of the source.

Columns and labels:
p53 in primary MEFs = assay: p53 protein level by western blot (screen)
Procedure: Cells were lysed in TNEN buffer (50 mM Tris, 150 mM NaCl, 5 mM EDTA, 0.5% NP-40, and 0.1% Triton X-100) supplemented with 1 mM NaF, Na2VO3, 1 mM PMSF, and 1 μg/ml of aprotonin, leupeptin, and pepstatin A. Protein concentrations were determined using a Bio-Rad assay. Proteins were resolved by SDS-PAGE and transferred to polyvinylidene difluoride membranes (Millipore).

[1] = test system: tumors derived from HCT116; assay: HCT116 carcinoma xenograft in nude mice; assay type: in vivo, mouse; details: 2.5mg/kg for 7 days
Procedure: Male BALB/cASlac-nude mice (4-week-old) were purchased from Shanghai Slac Laboratory Animal C. LTD. The mice were kept in the SPF mouse facility for 1 week before being inoculated with HCT116 cells. HCT116 cells were harvested by trypsinization, counted and resuspended in PBS at the concentration of 5×10^7/ml. We injected subcutaneously 3×10^6 cells to BALB/cASlac nude mice's back. After 2 weeks, the mice were divided into 3 groups (6 mice per group) and were treated with 5-Iodotubercidin (Itu), Bisindolylmaleimide IX or solvent (PBS). The mice were weighed and the size of tumor measured. The length (L) and width (W) of the tumor were measured with a digital caliper and expressed as tumor volume (0.5L×W^2, mm^3).

γH2AX foci in MEFs = assay: γH2AX DNA damage foci, immunofluorescent staining; assay type: cell-based, mouse; details: 2.5 μM, 4 hrs
Procedure: MEFs or HCT116 cells were cultured on cover slips while Baf3 cells were cultured on slides coated by 0.1mg/ml poly-L-lysine, washed with phosphate-buffered saline (PBS) twice, and then fixed in 4% paraformaldehyde (PFA), which were permeabilized with 0.1% Triton X in PBS for 30 minutes at room temperature. The primary antibodies were diluted in PBS with 1% BSA (1:200). The slides were blocked (1% BSA in PBS) for 60 minutes at room temperature, incubated with primary antibodies overnight at 4°C, and followed by secondary antibody incubation for 60 min at RT. The slides were then mounted and observed under confocal microscope (Leica, Germany). Antibodies against γH2AX were from Bethyl Corporation.

K562 cells = assay: Wst-1 cell survival assay; details: K562, Wst-1
Procedure: We then evaluated the cytotoxic effect of Bisindolylmaleimide IX in MEFs and HCT116 cells. Different doses of Bisindolylmaleimide IX were applied to the cell cultures and cell survival rates and IC50 were determined with Wst-1 assay.
To measure cell survival rates after Bisindolylmaleimide IX treatment, cells were plated at 1×10^4 in 96 well plates and cultured for overnight, which were then treated with Bisindolylmaleimide IX for 48 hrs. Cell proliferation reagent WST-1 (Roche) was added to each well and was further incubated for 4 hrs at 37°C. The absorbance was measured against a control using microplate reader at 440 nm. The reference wavelength was 630 nm.

[2] = test system: K562, HL-60, MCF7, U251, AGS, MGC-803, U2OS and Saos-2 cells; assay type: cell-based
Excerpt: The reference wavelength was 630 nm.
www.impactjournals.com/oncotarget/ Oncotarget, Supplementary Materials 2016 […]

[3] = test system: B-Raf in BCR-ABL positive BaF3 cells; assay: B-Raf phosphorylation, western blot; assay type: cell-based, murine
Procedure: Activation and expression of Erk, Mek1, and Raf were determined by western blot. B. Inhibition of Erk decreased the cell survival rates in BaF3 cells expressing BCR-ABL compared to control cells. […] C. […] N=3. Right panel: Western blot results showing that B-Raf was knocked down in these cells.

Compound: CCCCCCCCCCCCCCCC(=O)OC(CC(=O)O)C[N+](C)(C)C.[Cl-] (racemic) [Palmitoyl-DL-carnitine Cl]
- p53 protein up-regulation (p53 in primary MEFs): failed to up-regulate p53 in MEFs

Compound: Nc1ncnc2c1c(I)cn2[C@@H]1O[C@H](CO)[C@@H](O)[C@H]1O [5-Iodotubercidin]
- p53 protein up-regulation (p53 in primary MEFs): up-regulate p53 at the protein levels
- tumor growth [1]: greatly inhibited tumor growth

Compound: CN(C)CCCn1cc(C2=C(c3c[nH]c4ccccc34)C(=O)NC2=O)c2ccccc21 [Bisindolylmaleimide I]
- γH2AX foci formation (γH2AX foci in MEFs): minimal numbers of foci
- p53 protein up-regulation (p53 in primary MEFs): failed to up-regulate p53 in MEFs

Compound: Cn1cc(C2=C(c3cn(C4CCN(Cc5ccccn5)CC4)c4ccccc34)C(=O)NC2=O)c2ccccc21 [Enzastaurin]
- cytotoxicity (in words) (K562 cells): modest cytotoxic effect
- cytotoxic effect (in words) (BCR-ABL BaF3 cells; BCR-ABL BaF3, 24 hrs, compared among bisindolylmaleimide derivatives): modest cytotoxic effect
- γH2AX foci formation (γH2AX foci in MEFs): minimal numbers of foci

Compound: CC1CNCCN1S(=O)(=O)c1cccc2cnccc12 (stereo not drawn) [H-7]
- p53 protein up-regulation (p53 in primary MEFs): failed to up-regulate p53 in MEFs

Compound: NCCNS(=O)(=O)c1cccc2cnccc12 [H-9]
- p53 protein up-regulation (p53 in primary MEFs): failed to up-regulate p53 in MEFs

Compound: COCc1cc(O)c(O)c(O)c1-c1c(COC)cc(O)c(O)c1O [HBDDE]
- p53 protein up-regulation (p53 in primary MEFs): failed to up-regulate p53 in MEFs

Compound: Cc1cc(O)c2c(=O)c3c(O)cc(O)c4c5c(O)cc(O)c6c(=O)c7c(O)cc(C)c8c1c2c(c34)c(c78)c65 [Hypericin]
- p53 protein up-regulation (p53 in primary MEFs): failed to up-regulate p53 in MEFs

Compound: Cc1ccc(NC(=O)c2ccc(CN3CCN(C)CC3)cc2)cc1Nc1nccc(-c2cccnc2)n1 [Imatinib]
- cytotoxic effects across cell lines (in words) [2]: specificity to BCR-ABL positive cells

Compound: CC(=O)c1c(O)c(C)c(O)c(Cc2c(O)c3c(c(C(=O)/C=C/c4ccccc4)c2O)OC(C)(C)C=C3)c1O [Rottlerin]
- p53 protein up-regulation (p53 in primary MEFs): failed to up-regulate p53 in MEFs

Compound: CCCCCCCCCCCCC/C=C/[C@@H](O)[C@@H](N)CO [Sphingosine]
- p53 protein up-regulation (p53 in primary MEFs): failed to up-regulate p53 in MEFs

Compound: N#CC(=C(/N)Sc1ccccc1N)/C(C#N)=C(/N)Sc1ccccc1N [U0126]
- cell death rates in BCR-ABL expressing BaF3 cells versus control cells (BCR-ABL BaF3 cells; inhibition of Erk): increased cell death rates

Compound: COc1cccc2c1C(=O)c1c(O)c3c(c(O)c1C2=O)C[C@@](O)(C(=O)CO)C[C@@H]3O[C@H]1C[C@H](N)[C@H](O)[C@H](C)O1 [doxorubicin]
- phosphorylation of B-Raf [3]: did not affect the phosphorylation of B-Raf

Compound: CN[C@@H]1C[C@H]2O[C@@](C)([C@@H]1OC)n1c3ccccc3c3c4c(c5c6ccccc6n2c5c31)C(=O)NC4 [staurosporine]
- cytotoxic effects across cell lines (in words) ([2]; 24 hrs, Wst-1): strong cytotoxic effects in almost all these cell lines
- p53 protein up-regulation (p53 in primary MEFs): failed to up-regulate p53 in MEFs

Compound: COc1cc([C@@H]2c3cc4c(cc3[C@@H](O[C@@H]3O[C@@H]5CO[C@@H](c6cccs6)O[C@H]5[C@H](O)[C@H]3O)[C@H]3COC(=O)[C@H]23)OCO4)cc(OC)c1O [teniposide]
- phosphorylation of B-Raf [3]: did not affect the phosphorylation of B-Raf
- survival of BCR-ABL positive BaF3 cells compared with control cells (BCR-ABL BaF3 cells; 24 hrs, Wst-1): increased survival
